Where a SMILES comes first, the peptide text is derived from it.
Tested on: HCV IRES
Test: HCV IRES reporter FACS assay (GFP expression ratio, intein-expressed cyclic peptides)
Assay type: cell-based, Hepatitis C virus
Conditions: ratio at least 1.20 = significant activity
From the text: [The source words this procedure for another variant and says it was used here with some conditions changed.] Cells producing libraries of cyclic 3-mers and 4-mers (i.e., libraries of cyclic peptides that contain 3 or 4 amino acid residues) were constructed using methods identical to those of Kinsella et al (J Biol. Chem. 2002 277:37512-8), except different oligonucleotides were used for library construction. Clones from this library were screened in an assay shown in FIG. 2 to identify IRES-inhibitory compounds.
In summary, separate cyclic 3-mer and cyclic 4-mer libraries were constructed such that each peptide of the library contained a fixed Ser, Thr or Cys residue (at position 1) and the remaining residues were randomized. For library construction, degenerate oligonucleotides of sequence 5′-[…](AGC/ACC/TGC)(NNK)2 or 3 TGCATCAGCGGCGACAG-3′ were annealed to the primer 5′-[…]-3′ and extended using the Expand PCR kit (Roche Molecular Biochemicals). The double-stranded DNA insert was digested and inserted into the BclI/DrdI sites of DnaBO-e-BFP (ACUC). The plasmid libraries were electroporated into ElectroMAX DH 10B competent E. coli (Invitrogen) for amplification on LB+amp agar medium. […] Expression of the intein is detected by detecting BFP expression. Expression of the intein (and the cyclic peptide produced by the intein) is suppressible by addition of exogenous doxycycline. The amino acid sequence of the junctions of the intein scaffold used in making the 3-mer library is Val-His-Asn-X3 or 4-Cys-Ile-Ser, where X3 or 4 are three or four contiguous amino acids.
Infectious retroviral particles were produced by transfection of 15 µg of each library (as described in Swift et al, (1999). Current Protocols in Immunology Vol. 10.17C, pp. 1-17, Freeman, N.Y.) into approximately 5×10^6 Phoenix-A packaging cells. Each resulting library of retroviral particles was then used to infect 5×10^6 BJAB-S3A11 reporter cells and a FACS based selection was carried out to isolate cells with reduced HCV-IRES reporter output.
In detail, referring to FIG. 2, the cells used in the assay contained an IRES-dependent reporter system. […]. Also present in the cells is a control reporter system for assaying the activity of 5′ cap-dependent translation (the mechanism by which most cellular proteins are normally translated). The control reporter system contains a CMV promoter that drives the transcription of an RNA containing 5′ cap-dependent UTR, operably linked to an RNA encoding RFP (red fluorescent protein). Translation of RFP is dependent on the activity of the 5′ cap-dependent UTR.
Cells containing both the cyclic compound library and the reporter systems described above were first screened for survival upon exposure to diptheria toxin, and then screened by FACS to identify cells that had reduced GFP expression, as compared to RFP expression. Cells were expanded and replica-plated and grown in the presence or absence of dox (100 ng/ml) for four days. Plates were stimulated with IL-4 and GFP expression (relative to RFP) was monitored by flow cytometry. The IRES-inhibitory activity of a peptide is evaluated by calculating the ratio of the geometric mean of GFP expression of peptide positive cells (“peptide pos+” cells i.e., cells not contacted with dox) to the geometric mean of GFP expression of peptide negative cells (“peptide pos−” cells i.e., cells contacted with dox).
Cyclic peptides assigned higher scores have a greater IRES-inhibitory activity.
The number shown in parentheses after each of the amino acid sequences is the IRES-inhibitory activity ratio, as discussed above.

[1] = 3-mers from mutant intein scaffold, junction Val-His-Asn-X1X2X3-Trp-Ile-Ser
[2] = 3-mers from mutant intein scaffold, junction Val-His-Tyr-X1X2X3-Cys-Ile-Ser
[3] = BJAB-S3A11 reporter cells, +/- dox 100 ng/ml four days, library intein junction Val-His-Asn-X1X2X3-Cys-Ile-Ser
[4] = 4-mers from mutant intein scaffold, junction Val-His-Asn-X1X2X3X4-Cys-Ser

Structure (SMILES): O=C1N[C@@H](CO)C(=O)N2CCC[C@H]2C(=O)N[C@H]1Cc1c[nH]c2ccccc12 [cyclo-SPW, cyclo[SPW]] (cyclo(Pro-Trp-Ser))
- IRES-inhibitory activity ratio (geometric mean GFP expression, peptide positive cells / peptide negative cells) [1]: 2.28

Structure (SMILES): NC(=O)CC[C@@H]1NC(=O)[C@H](CO)NC(=O)[C@H](Cc2c[nH]c3ccccc23)NC1=O [cyclo-SQW, cyclo[SQW]] (cyclo(Gln-Trp-Ser))
- IRES-inhibitory activity ratio (geometric mean GFP expression, peptide positive cells / peptide negative cells) [1]: 2.20

Structure (SMILES): N=C(N)NCCC[C@@H]1NC(=O)[C@H](CO)NC(=O)[C@H](Cc2c[nH]c3ccccc23)NC1=O [cyclo-SRW, cyclo[SRW]] (cyclo(Arg-Trp-Ser))
- IRES-inhibitory activity ratio (geometric mean GFP expression, peptide positive cells / peptide negative cells) [1]: 2.14

Structure (SMILES): O=C1N[C@@H](Cc2c[nH]c3ccccc23)C(=O)N[C@@H](CO)C(=O)N[C@H]1CO [cyclo-SSW, cyclo[SSW]] (cyclo(Ser-Ser-Trp))
- IRES-inhibitory activity ratio (geometric mean GFP expression, peptide positive cells / peptide negative cells) [1]: 2.05

Structure (SMILES): CC(C)[C@@H]1NC(=O)[C@H]([C@@H](C)O)NC(=O)[C@H](CO)NC1=O [cyclo-STV, cyclo[STV]] (cyclo(Ser-Thr-Val))
- IRES-inhibitory activity ratio (geometric mean GFP expression, peptide positive cells / peptide negative cells) [2]: 2.24

Structure (SMILES): C[C@@H](O)[C@@H]1NC(=O)[C@H](CO)NC(=O)[C@H](Cc2c[nH]c3ccccc23)NC1=O [cyclo-STW, cyclo[STW]] (cyclo(Ser-Thr-Trp))
- IRES-inhibitory activity ratio (geometric mean GFP expression, peptide positive cells / peptide negative cells) [1]: 2.12

Structure (SMILES): CCC(C)[C@@H]1NC(=O)[C@H](C(C)C)NC(=O)[C@H](CO)NC1=O (some centres unmarked) [cyclo-SVI, cyclo[SVI]]
- IRES-inhibitory activity ratio (geometric mean GFP expression, peptide positive cells / peptide negative cells) [3]: 1.28

Structure (SMILES): CC(C)[C@@H]1NC(=O)[C@H](CO)NC(=O)[C@H](C(C)C)NC1=O [cyclo-SVV, cyclo[SVV]] (cyclo(Ser-Val-Val))
- IRES-inhibitory activity ratio (geometric mean GFP expression, peptide positive cells / peptide negative cells) [3]: 1.64

Structure (SMILES): CC(C)[C@@H]1NC(=O)[C@H](CO)NC(=O)[C@H](Cc2c[nH]c3ccccc23)NC1=O [cyclo-SVW, cyclo[SVW]] (cyclo(Ser-Val-Trp))
- IRES-inhibitory activity ratio (geometric mean GFP expression, peptide positive cells / peptide negative cells) [3]: 1.3

Structure (SMILES): O=C1N[C@@H](Cc2c[nH]c3ccccc23)C(=O)N[C@@H](Cc2ccccc2)C(=O)N[C@H]1CO [cyclo-SWF, cyclo[SWF]] (cyclo(Phe-Ser-Trp))
- IRES-inhibitory activity ratio (geometric mean GFP expression, peptide positive cells / peptide negative cells) [3]: 1.33

Structure (SMILES): C[C@@H]1NC(=O)[C@H](Cc2ccccc2)NC(=O)[C@H](Cc2c[nH]c3ccccc23)NC(=O)[C@H](CO)NC1=O [cyclo-SWFA, cyclo[SWFA]] (cyclo(ASWF))
- IRES-inhibitory activity ratio (geometric mean GFP expression, peptide positive cells / peptide negative cells) [4]: 1.31

Structure (SMILES): NCCCC[C@@H]1NC(=O)[C@H](Cc2ccccc2)NC(=O)[C@H](Cc2c[nH]c3ccccc23)NC(=O)[C@H](CO)NC1=O [cyclo-SWFK, cyclo[SWFK]] (cyclo(FKSW))
- IRES-inhibitory activity ratio (geometric mean GFP expression, peptide positive cells / peptide negative cells) [4]: 1.58

Structure (SMILES): CSCC[C@@H]1NC(=O)[C@H](Cc2ccccc2)NC(=O)[C@H](Cc2c[nH]c3ccccc23)NC(=O)[C@H](CO)NC1=O [cyclo-SWFM, cyclo[SWFM]] (cyclo(FMSW))
- IRES-inhibitory activity ratio (geometric mean GFP expression, peptide positive cells / peptide negative cells) [4]: 1.31

Structure (SMILES): N=C(N)NCCC[C@@H]1NC(=O)[C@H](Cc2ccccc2)NC(=O)[C@H](Cc2c[nH]c3ccccc23)NC(=O)[C@H](CO)NC1=O [cyclo-SWFR, cyclo[SWFR]] (cyclo(FRSW))
- IRES-inhibitory activity ratio (geometric mean GFP expression, peptide positive cells / peptide negative cells) [4]: 1.44

Structure (SMILES): CCC(C)[C@@H]1NC(=O)[C@H](Cc2c[nH]c3ccccc23)NC(=O)[C@H](CO)NC1=O (some centres unmarked) [cyclo-SWI, cyclo[SWI]]
- IRES-inhibitory activity ratio (geometric mean GFP expression, peptide positive cells / peptide negative cells) [3]: 1.36

Structure (SMILES): CSCC[C@@H]1NC(=O)[C@H](Cc2c[nH]c3ccccc23)NC(=O)[C@H](CO)NC1=O [cyclo-SWM, cyclo[SWM]] (cyclo(Met-Ser-Trp))
- IRES-inhibitory activity ratio (geometric mean GFP expression, peptide positive cells / peptide negative cells) [3]: 1.22

Structure (SMILES): CC(C)[C@@H]1NC(=O)[C@H](Cc2c[nH]c3ccccc23)NC(=O)[C@H](CO)NC1=O [cyclo-SWV, cyclo[SWV]] (cyclo(Ser-Trp-Val))
- IRES-inhibitory activity ratio (geometric mean GFP expression, peptide positive cells / peptide negative cells) [3]: 1.83

Structure (SMILES): O=C1N[C@@H](Cc2c[nH]c3ccccc23)C(=O)N[C@@H](Cc2c[nH]c3ccccc23)C(=O)N[C@H]1CO [cyclo-SWW, cyclo[SWW]] (cyclo(Ser-Trp-Trp))
- IRES-inhibitory activity ratio (geometric mean GFP expression, peptide positive cells / peptide negative cells) [3]: 2.37

Structure (SMILES): N=C(N)NCCC[C@@H]1NC(=O)[C@H](Cc2c[nH]c3ccccc23)NC(=O)[C@H](Cc2c[nH]c3ccccc23)NC(=O)[C@H](CO)NC1=O [cyclo-SWWR, cyclo[SWWR]] (cyclo(RSWW))
- IRES-inhibitory activity ratio (geometric mean GFP expression, peptide positive cells / peptide negative cells) [4]: 2.03

Structure (SMILES): O=C1N[C@@H](Cc2c[nH]c3ccccc23)C(=O)N[C@@H](Cc2ccc(O)cc2)C(=O)N[C@H]1CO [cyclo-SWY, cyclo[SWY]] (cyclo(Ser-Trp-Tyr))
- IRES-inhibitory activity ratio (geometric mean GFP expression, peptide positive cells / peptide negative cells) [3]: 1.38

Structure (SMILES): N=C(N)NCCC[C@@H]1NC(=O)[C@H](Cc2ccc(O)cc2)NC(=O)[C@H](Cc2c[nH]c3ccccc23)NC(=O)[C@H](CO)NC1=O [cyclo-SWYR, cyclo[SWYR]] (cyclo(RSWY))
- IRES-inhibitory activity ratio (geometric mean GFP expression, peptide positive cells / peptide negative cells) [4]: 1.49

Structure (SMILES): CC(C)[C@@H]1NC(=O)[C@H](Cc2ccc(O)cc2)NC(=O)[C@H](CO)NC1=O [cyclo-SYV, cyclo[SYV]] (cyclo(Ser-Tyr-Val))
- IRES-inhibitory activity ratio (geometric mean GFP expression, peptide positive cells / peptide negative cells) [3]: 1.4

Structure (SMILES): O=C1N[C@@H](Cc2ccc(O)cc2)C(=O)N[C@@H](Cc2c[nH]c3ccccc23)C(=O)N[C@H]1CO [cyclo-SYW, cyclo[SYW]] (cyclo(Ser-Tyr-Trp))
- IRES-inhibitory activity ratio (geometric mean GFP expression, peptide positive cells / peptide negative cells) [3]: 1.64

Structure (SMILES): CC(C)[C@@H]1NC(=O)[C@H](C)NC(=O)[C@H]([C@@H](C)O)NC1=O [cyclo-TAV, cyclo[TAV]] (cyclo(Ala-Val-Thr))
- IRES-inhibitory activity ratio (geometric mean GFP expression, peptide positive cells / peptide negative cells) [2]: 2.00

Structure (SMILES): C[C@@H]1NC(=O)[C@H]([C@@H](C)O)NC(=O)[C@H](Cc2c[nH]c3ccccc23)NC1=O [cyclo-TAW, cyclo[TAW]] (cyclo(Ala-Trp-Thr))
- IRES-inhibitory activity ratio (geometric mean GFP expression, peptide positive cells / peptide negative cells) [1]: 5.09

Structure (SMILES): C[C@@H](O)[C@@H]1NC(=O)[C@H](Cc2c[nH]c3ccccc23)NC(=O)[C@H](CS)NC1=O [cyclo-TCW, cyclo[TCW]] (cyclo(Cys-Trp-Thr))
- IRES-inhibitory activity ratio (geometric mean GFP expression, peptide positive cells / peptide negative cells) [3]: 1.48

Structure (SMILES): C[C@@H](O)[C@@H]1NC(=O)[C@H](Cc2c[nH]c3ccccc23)NC(=O)[C@H](Cc2ccccc2)NC1=O [cyclo-TFW, cyclo[TFW]] (cyclo(Phe-Trp-Thr))
- IRES-inhibitory activity ratio (geometric mean GFP expression, peptide positive cells / peptide negative cells) [3]: 1.75

Structure (SMILES): C[C@@H](O)[C@@H]1NC(=O)[C@H](Cc2c[nH]c3ccccc23)NC(=O)[C@H](Cc2cnc[nH]2)NC1=O [cyclo-THW, cyclo[THW]] (cyclo(His-Trp-Thr))
- IRES-inhibitory activity ratio (geometric mean GFP expression, peptide positive cells / peptide negative cells) [3]: 1.49

Structure (SMILES): CC(C)C[C@@H]1NC(=O)[C@H]([C@@H](C)O)NC(=O)[C@H](Cc2c[nH]c3ccccc23)NC1=O [cyclo-TLW, cyclo[TLW]] (cyclo(Leu-Trp-Thr))
- IRES-inhibitory activity ratio (geometric mean GFP expression, peptide positive cells / peptide negative cells) [3]: 1.2
